Measured values: US11976083B2, “Inhibitors of peptidylarginine deiminases” (Gilead Sciences, Inc., priority 2020, dated 2024)

Target: T1, human PAD4 (Homo sapiens, UniProt Q9UM07)
T1 construct: human PAD4 (NM_012387), A2-P663, was PCR amplified; His-SUMO (N, cleaved yes); made in house; host or cells: E. coli BL21(DE3)
Assay: In vitro PAD4 BAEE biochemical assay
Conditions: BAEE substrate 3 mM, 5 nM PAD4, 2 mM calcium chloride; geometric mean of multiple experiments
Procedure, shortened: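 Recombinant human PAD4 (5 nM final) with 2 mM CaCl2 was preincubated with compound 30 min at 25 °C in MOPS buffer pH 7.6, then reacted with 3 mM BAEE for 2 h at 25 °C. After EDTA stop, released ammonia was detected by o-phthalaldehyde/DTT fluorescence (ex 405/em 535 nm); IC50 from four-parameter fit, geometric mean.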

T1 sequence (Q9UM07 2-663): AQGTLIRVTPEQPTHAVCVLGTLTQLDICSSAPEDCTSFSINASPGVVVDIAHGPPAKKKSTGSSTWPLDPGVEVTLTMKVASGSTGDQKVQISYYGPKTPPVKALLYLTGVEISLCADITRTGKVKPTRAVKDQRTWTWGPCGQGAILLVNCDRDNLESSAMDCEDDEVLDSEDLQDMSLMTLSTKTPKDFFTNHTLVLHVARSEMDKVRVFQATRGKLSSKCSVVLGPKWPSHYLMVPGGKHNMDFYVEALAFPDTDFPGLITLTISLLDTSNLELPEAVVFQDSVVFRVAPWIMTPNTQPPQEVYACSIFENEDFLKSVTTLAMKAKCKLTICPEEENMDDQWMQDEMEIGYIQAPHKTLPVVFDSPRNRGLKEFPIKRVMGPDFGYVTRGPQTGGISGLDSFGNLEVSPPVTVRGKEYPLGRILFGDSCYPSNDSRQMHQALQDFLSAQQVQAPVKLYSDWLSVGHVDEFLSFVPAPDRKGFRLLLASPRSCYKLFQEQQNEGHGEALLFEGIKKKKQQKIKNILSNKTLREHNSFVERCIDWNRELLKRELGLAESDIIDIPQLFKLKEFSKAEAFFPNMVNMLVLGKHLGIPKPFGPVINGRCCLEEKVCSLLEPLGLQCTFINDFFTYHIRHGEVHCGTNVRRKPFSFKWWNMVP

| IC50 [nM] | Structure (SMILES) |
| --- | --- |
| 71 | COc1cc(C(=O)N2CC[C@@H](OC)[C@@H](N)C2)cc2nc(-c3cc4ccc5nc4n3CCCCCc3ccnc(C4CC4)c3C(=O)N[C@@H]5C)n(C)c12 [Example 663, (2~{R})-17-[5-[(3~{S),4~ {R})-3-amino-4-methoxy-piperidine-1-carbonyl]-7-methoxy-1-methyl-benzimidazol-2-yl]-6-cyclopropyl-2-methyl-3,7,16,22-tetrazatetracyclo[14.5.2.0^ {5,10}.0^{19,23}] tricosa-1(22),5,7,9,17,19(23), 20-heptaen-4-one] |
| 51 | COc1cc(C(=O)N2CCC[C@@H](N)[C@H]2C)cc2nc(-c3cc4ccc5nc4n3CCCCCc3ccnc(C4CC4)c3C(=O)N[C@@H]5C)n(C)c12 [Example 664, (2~{R})-17-[5-[(2~{R},3~ {R})-3-amino-2-methyl-piperidine-1-carbonyl]-7-methoxy-1-methyl-benzimidazol-2-yl]-6-cyclopropyl-2-methyl-3,7,16,22-tetrazatetracyclo[14.5.2.0^ {5,10}.0^{19,23}] tricosa-1(22),5,7,9,17,19(23), 20-heptaen-4-one] |
| 26 | COc1cc(C(=O)N2C[C@H](N)[C@@H]3CC[C@H]2C3)cc2nc(-c3cc4ccc5nc4n3CCCCCc3cc(Cl)ncc3C(=O)N[C@@H]5C)n(C)c12 [Example 665, (2~{R})-17-[5-[(1~{S),4~{R}, 5~{R})-4-amino-2-azabicyclo[3.2.1]octane-2-carbonyl]-7-methoxy-1-methyl-benzimidazol-2-yl]-8-chloro-2-methyl-3,7,16,22-tetrazatetracyclo[14.5.2.0^ {5,10).0^{19,23}]tricosa-1(22),5(10),6,8,17,19(23),20-heptaen-4-one] |
| 86 | COc1cc(C(=O)N2C[C@H]3C[C@@H]2[C@@H]3N)cc2nc(-c3cc4ccc5nc4n3CC(F)(F)CCC[C@@H]3C[C@H]3C(=O)N[C@@H]5C)n(C)c12 [Example 666, (2~{R},5~{R},7~{R})-14-[5-[(1~{R},4~{R},5~{R})-5-amino-2-azabicyclo [2.1.1]hexane-2-carbonyl]-7-methoxy-1-methyl-benzimidazol-2-yl]-11,11-difluoro-2-methyl-3,13,19-triazatetracyclo [11.5.2.0^{5,7}.0^{16,20}] icosa-1(19),14,16(20),17-tetraen-4-one] |
| 70 | COc1cc(C(=O)N2C[C@H]3C[C@@H]2[C@@H]3N)cc2nc(-c3cc4ccc5nc4n3CCCCCCC(C)(C)C(=O)N[C@@H]5C)n(C)c12 [Example 667, (11~{R})-17-[5-[(1~{R},4~ {R},5~{R})-5-amino-2-azabicyclo[2.1.1]hexane-2-carbonyl]-7-methoxy-1-methyl-benzimidazol-2-yl]-8,8,11-trimethyl-1,10,19-triazatricyclo[10.5.2.0^ {15,18}]nonadeca-12(19), 13,15(18),16-tetraen-9-one] |
| 22 | COc1cc(C(=O)N2C[C@H](N)[C@@H]3CC[C@H]2[C@H]3F)cc2nc(-c3cc4ccc5nc4n3CC(F)(F)CCC[C@@H]3C[C@H]3C(=O)N[C@@H]5C)n(C)c12 [Example 668, (2~{R},5~{R},7~{R})-14-[5-[(1~{S},4~{R},5~ {S},8~{S})-4-amino-8-fluoro-2-azabicyclo [3.2.1]octane-2-carbonyl]-7-methoxy-1-methyl-benzimidazol-2-yl]-11,11-difluoro-2-methyl-3,13,19-triazatetracyclo [11.5.2.0^{5,7}.0^{16,20}] icosa-1(19),14,16(20), 17-tetraen-4-one] |
| 45 | C[C@H]1NC(=O)c2ccc(Cl)nc2CCCCCn2c(-c3nc4cc(C(=O)N5C[C@H](N)[C@@H]6CC[C@H]5[C@H]6F)cc(F)c4n3C3CC3)cc3ccc1nc32 [Example 669, (2~{R})-17-[5-[(1~{S}, 4~{R},5~{S},8~{S})-4-amino-8-fluoro-2-azabicyclo[3.2.1]octane-2-carbonyl]-1-cyclopropyl-7-fluoro-benzimidazol-2-yl]-8-chloro-2-methyl-3,9,16,22-tetrazatetracyclo[14.5.2.0^ {5,10).0^{19,23}]tricosa-1(22),5(10),6,8,17,19(23),20-heptaen-4-one] |
| 6 | Cc1ccc2c(n1)CCCCCn1c(-c3nc4cc(C(=O)N5C[C@H](N)[C@@H]6CC[C@H]5C6)cc(F)c4n3C3CC3)cc3ccc(nc31)[C@@H](C)NC2=O [Example 670, (2~{R})-17-[5-[(1~{S),4~{R}, 5~{R})-4-amino-2-azabicyclo[3.2.1]octane-2-carbonyl]-1-cyclopropyl-7-fluoro-benzimidazol-2-yl]-2,8-dimethyl-3,9,16,22-tetrazatetracyclo[14.5.2.0^ {5,10).0^{19,23}]tricosa-1(22),5(10),6,8,17,19(23), 20-heptaen-4-one] |
| 20 | C[C@H]1NC(=O)c2c(ccnc2C2CC2)CCCCCn2c(-c3nc4cc(C(=O)N5C[C@H](N)[C@@H]6CC[C@H]5C6)cc(F)c4n3C3CC3)cc3ccc1nc32 [Example 671, (2~{R})-17-[5-[(1~{S),4~ {R},5~{R})-4-amino-2-azabicyclo[3.2.1]octane-2-carbonyl]-1-cyclopropyl-7-fluoro-benzimidazol-2-yl]-6-cyclopropyl-2-methyl-3,7,16,22-tetrazatetracyclo [14.5.2.0^{5,10}.0^{19,23}] tricosa-1(22),5(10),6,8,17, 19(23),20-heptaen-4-one] |
| 28 | C[C@H]1NC(=O)c2cc(Cl)ncc2CCCCCn2c(-c3nc4cc(C(=O)N5C[C@H](N)[C@@H]6CC[C@H]5C6)cc(F)c4n3C3CC3)cc3ccc1nc32 [Example 672, (2~{R})-17-[5-[(1~{S},4~ {R},5~{R})-4-amino-2-azabicyclo[3.2.1]octane-2-carbonyl]-1-cyclopropyl-7-fluoro-benzimidazol-2-yl]-7-chloro-2-methyl-3,8,16,22-tetrazatetracyclo [14.5.2.0^{5,10}.0^{19,23}] tricosa-1(22),5(10),6,8,17,19 (23),20-heptaen-4-one] |
| 27 | COc1cc(C(=O)N2C[C@H](N)[C@@H]3CC[C@H]2C3)cc2nc(-c3cc4ccc5nc4n3CCCCCc3ccccc3C(=O)N[C@@H]5C)n(C3CC3)c12 [Example 673, (2~{R})-17-[5-[(1~{S},4~ {R},5~{R})-4-amino-2-azabicyclo[3.2.1]octane-2-carbonyl]-1-cyclopropyl-7-methoxy-benzimidazol-2-yl]-2-methyl-3,16,22-triazatetracyclo[14.5.2.0^ {5,10}.0^{19,23}] tricosa-1(22),5(10),6,8, 17,19(23),20-heptaen-4-one] |
| 17 | C[C@H]1NC(=O)c2cnc(C(F)F)cc2CCCCCn2c(-c3nc4cc(C(=O)N5C[C@H](N)[C@@H]6CC[C@H]5C6)cc(F)c4n3C3CC3)cc3ccc1nc32 [Example 674, (2~{R})-17-[5-[(1~{S},4~ {R},5~{R})-4-amino-2-azabicyclo[3.2.1]octane-2-carbonyl]-1-cyclopropyl-7-fluoro-benzimidazol-2-yl]-8-(difluoromethyl)-2-methyl-3,7,16,22-tetrazatetracyclo[14.5.2.0^ {5,10).0^{19,23}]tricosa-1(22),5(10),6,8,17,19(23), 20-heptaen-4-one] |
| 559 | COc1cc(C(=O)N2CC[C@@H](OC)[C@@H](N)C2)cc2nc(-c3cc4ccc5nc4n3CCCCCCNC(=O)c3ncccc3-5)n(C)c12 [Example 675, 17-[5-[(3~{S},4~{R})-3-amino-4-methoxy-piperidine-1-carbonyl]-7-methoxy-1-methyl-benzimidazol-2-yl]-6,9,16,22-tetrazatetracyclo [14.5.2.0^{2,7}.0^{19,23}] tricosa-1(22),2,4,6,17,19(23), 20-heptaen-8-one] |
| 83 | COc1cc(C(=O)N2CC[C@@H](C)[C@@H](N)[C@@H]2C)cc2nc(-c3cc4ccc5nc4n3CC(F)(F)CCC[C@@H]3C[C@H]3C(=O)N[C@@H]5C)n(C)c12 [Example 676, (2~{R},5~{R},7~{R})-14-[5-[(2~{S},3~{R},4~ {R})-3-amino-2,4-dimethyl-piperidine-1-carbonyl]-7-methoxy-1-methyl-benzimidazol-2-yl]-11,11-difluoro-2-methyl-3,13,19-triazatetracyclo[11.5.2.0^ {5,7}.0^{16,20}] icosa-1(19),14,16(20), 17-tetraen-4-one] |
| 82 | COC[C@H]1CCN(C(=O)c2cc(OC)c3c(c2)nc(-c2cc4ccc5nc4n2CCCCCCC(C)(C)C(=O)N[C@@H]5C)n3C)C[C@@H]1N [Example 677, (11~{R})-17-[5-[(3~ {R},4~{S})-3-amino-4-(methoxymethyl)piperidine-1-carbonyl]-7-methoxy-1-methyl-benzimidazol-2-yl]-8,8,11-trimethyl-1,10,19-triazatricyclo [10.5.2.0^{15,18}] nonadeca-12(19),13,15 (18),16-tetraen-9-one] |
| 15 | COc1cc(C(=O)N2C[C@H](N)[C@H](O)[C@@H](F)C2)cc2nc(-c3cc4ccc5nc4n3CC(F)(F)CCC[C@@H]3C[C@H]3C(=O)N[C@@H]5C)n(C)c12 [Example 678, (2~{R},5~{R},7~{R})-14-[5-[(3~{S},4~{S},5~ {S})-3-amino-5-fluoro-4-hydroxy-piperidine-1-carbonyl]-7-methoxy-1-methyl-benzimidazol-2-yl]-11,11-difluoro-2-methyl-3,13,19-triazatetracyclo[11.5.2.0^ {5,7}.0^{16,20}]icosa-1(19), 14,16(20),17-tetraen-4-one] |
| 33 | COc1cc(C(=O)N2CCC[C@@H](N)[C@H]2C)cc2nc(-c3cc4ccc5nc4n3CC(F)(F)CCCc3cncc(F)c3C(=O)N[C@@H]5C)n(C)c12 [Example 679, (2~{R})-17-[5-[(2~{R},3~ {R})-3-amino-2-methyl-piperidine-1-carbonyl]-7-methoxy-1-methyl-benzimidazol-2-yl]-6,14,14-trifluoro-2-methyl-3,8,16,22-tetrazatetracyclo[14.5.2.0^ {5,10).0^{19,23}] tricosa-1(22),5(10),6,8,17, 19(23),20-heptaen-4-one] |
